# Test results reported in patent US20040001822A1, “Y1-isolated molecules comprising epitopes containing sulfated moieties, antibodies to such epitopes, and uses thereof” (priority 2000, published 2004).
# Starred links: 1 amine or outer side, 2 acyl side, 3 side chain; linkers in the order of their positions; H or OH if unused. Primed or numbered codes have the meaning given here. No end group written: not given here. *: point of attachment. SO3H = sulfated tyrosine (Y*), O=S(=O)(O)[*:2]; SO3H″ = O=S(=O)(O)*
# How the values were obtained:
# [1] = tested on: scFv Y1 binding to glycocalicin; experiment: Competitive binding ELISA of sulfated peptides to Y1; set-up: species or system human; conditions: for Inhibition of Y1 binding to glycocalicin by peptide: peptide preincubated with scFv Y1 at 1, 10 and 100 μM
# Description: A competitive binding ELISA assay was used to assess the importance of position of sulfated tyrosines to the binding of peptides to Y1.
# Glycocalicin was immobilized on a Maxisorb plate. scFv Y1 was preincubated with a peptide of interest for 10 minutes at three different concentrations (1, 10 and 100 μM) in order to observe a dose response. (Table 12). After preincubation, the mixture (Y1+peptide) was added to the plate, and binding of scFv Y1 was assessed using polyclonal rabbit anti-VL, which recognizes the VL chain of scFv Y1, followed by anti-rabbit-HRP. In mixtures in which the peptide bound to scFv Y1, a decrease in the binding of scFv Y1 to glycocalicin compared to control binding was observed.
# washed platelets = experiment: Competitive FACS: effect of synthetic GPIbα peptides on Y1 binding to washed platelets; set-up: species or system human
# Description: (§1) ELISA assays were developed to evaluate the effect of the GPIb derived synthetic peptides on the binding of Y1 to purified glycocalicin. In addition, FACS analysis using washed platelets was carried out. To evaluate the importance of sulfated tyrosine within the Y1 binding site of GPIb, a competitive binding FACS analysis was used. Y1-scFv at a concentration of 1 μg was preincubated with different peptides at concentrations of 2.5 and 200 μM. After a preincubation for 30 minutes at room temperature the mixture was added to a tube containing ˜10^7 washed platelets and the binding of Y1 to the washed platelets was assessed using polyclonal rabbit anti-scFv-PE. The inhibitory effect of the peptides compared to control binding (Y1 alone) was evaluated by measuring the residual binding of Y1 to washed platelets. The peptides and the results are described in Table 1 and are similar to results that were observed using the same peptides in an ELISA assay (Table B). In both assays, a control level of Y1 binding was determined, as follows. A polystyrene microtiter maxisorb plate was coated with (a) purified glycocalicin or (b) washed platelets. After extensive washing, 0.5 μg/well of Y1 was added. The plate was then incubated with rabbit anti-scFv followed by addition of anti rabbit-HRP (horse radish peroxidase) and HRP substrate. The level of anti rabbit-HRP binding was measured by the intensity of the color produced, and the level of anti rabbit-HRP binding correlates with the level of binding of anti Y1-scFv and the level of binding of Y1. The optical density was measured at A405. Each sample was assayed in duplicate, and the average was calculated.
# [2] = tested on: Y1 Binding to Glycocalicin; experiment: ELISA: effect of synthetic GPIbα peptides on Y1 binding to purified glycocalicin; set-up: species or system human; conditions: 0.25 μg/well Y1
# Description: as §1, with “After extensive washing, 0.5 μg/well of Y1 was added.” left out
# The effect of synthetic GPIbα peptides on Y1 binding to purified glycocalicin was evaluated by mixing varying concentrations of the peptides with a constant amount of Y1. After a preincubation for 30 minutes at room temperature, the mixture was added to a polystyrene microtiter maxisorb plate coated with purified glycocalicin, as described for evaluation of Y1 binding in the absence of peptides. The inhibitory effect of the peptides was evaluated by measuring the residual binding of Y1 to glycocalicin using rabbit anti Y1 scFv and anti rabbit-HRP antibodies, as described for evaluation of Y1 binding in the absence of peptides. This study was performed with four peptides representing various subsets of the sequence 268 to 285 and a control peptide. Each peptide was tested at different concentrations: 200 μM, 25 μM, 2.5 μM, and 0.5 μM.
# KG-1 cells = experiment: AML KG-1 model in NOD/SCID mice; assay type: in vivo; conditions: for percentage of KG-1 cells in bone marrow compared to untreated group 2: Doxorubicin 0.1 mg/kg 3 times per week, CONY1-Doxorubicin 75 μg/mouse 3 times per week, Mylotarg 0.2 mg/kg 1 time per week
# Description: The in vivo mouse model for human AML uses SCID/NOD mice (Jackson Laboratories) inoculated with KG-1 cells derived from a human AML cell line.
# In a first experiment, NOD/SCID mice were pretreated with 100 mg/kg CYTOXAN®. Four days post CYTOXAN® injection, KG-1 cells were injected intravenously into the tail vein of six groups of mice. (Table N, Groups 2 and 5-9). One group of mice (Table N, Group 1) was injected with PBS alone (control).
# Beginning 19 days post KG-1 injection mice were treated with: CONY1, Doxorubicin, CONY1-Doxorubicin conjugate, or Mylotarg®. (Mylotarg® is a monoclonal antibody (anti CD33) conjugated chemically to calcheamicin recently approved by the FDA for treatment of AML patients age 60 and over in a first relapse.) Mice were treated once or three times per week for three weeks. One group (group 2) of KG-1 inoculated mice were left untreated. (Table N). Two other groups of mice (groups 3 and 4) were injected with KG-1 cells that were previously incubated with CONY1 or 181-scFv (a negative, non-specific control antibody) in serum free RPMI containing 1% BSA at 4° C. for 1 h. The antibodies were used at a concentration of 0.25 mg scFv/l 10^8 cells (75 μg/mouse). Before injection into the mice the preincubated KG-1 cells were washed and resuspended in RPMI. The KG-1 cells in RPMI were inoculated into mice at a concentration of 75 μg scFv/0.2 ml RPMI per mouse. Group 3 mice were inoculated with KG-1+CONY1, and group4 mice were inoculated with KG-1+181-scFv. (Table N). This treatment (group 3 and 4) was carried out one day after the inoculation of groups 1-2 and 5-9, i.e., at five days after CYTOXAN injection.
# Mice were sacrificed from 60 to 65 days post cell injection. Bone marrow samples were analyzed by flow cytometry using mouse anti human CD34-FITC (IQP 144F) (or anti CD44-FITC (MCA89F, Serotec)) and Y1-Biotin/SAV-PE. Mouse IgG1-FITC (IQP 191-F) was used as an isotype control, and mouse IgG2a-FITC (MCA929F, Serotec) was used as a negative control. Flow cytometry was performed using FACSCalibur system and CellQwest software, Becton Dickinson.
# An additional experiment was performed in which SCID-NOD mice were i.v. injected with 3×10^4 MOLT-4 cells/mouse 5 days post treatment with cyclophosphamide. Anti-cancer agents or PBS were injected IV three times/week, from day 14 onward. On day 60, blood was drawn, then the animals were sacrificed. Bone marrow was extracted and analyzed by FACS analysis using a commercially available antiCD44 antibody for the detection of MOLT-4 cells in the mice bone marrow cell population.
# Sequence of scFv Y1 binding to glycocalicin (as listed by the source): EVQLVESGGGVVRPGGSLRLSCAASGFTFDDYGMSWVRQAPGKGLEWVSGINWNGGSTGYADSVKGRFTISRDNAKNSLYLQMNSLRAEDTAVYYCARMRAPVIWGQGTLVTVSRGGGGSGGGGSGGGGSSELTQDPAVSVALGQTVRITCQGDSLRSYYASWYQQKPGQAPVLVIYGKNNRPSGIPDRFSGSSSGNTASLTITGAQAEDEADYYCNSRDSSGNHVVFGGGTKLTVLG
# Sequence of Y1 Binding to Glycocalicin (as listed by the source): as above
compound,measurement,setting,value
"QATEY*EYLDYDFLPETE (QATEY(SO3H)EYLDYDFLPETE) [P-Y*YY, PSGL-1 n-terminus peptide, sulfated]",peptide concentration at which binding is inhibited efficiently,"[1]; competitive ELISA, scFv Y1 on glycocalicin",100 µM
same,Inhibition of Y1 binding to glycocalicin by peptide,[1],inhibited Y1 binding to glycocalicin
"GDEGDTDLY*DY*Y*PEEDTE (GDEGDTDLYDYYPEEDTE; not fully specified (residues 9, 11, 12); printed as GDEGDTDLY*DY*Y*PEEDTE) [P-1-S, residues 268-285 of GPIbα, Y* sulfated tyrosine]",Residual Binding of Y1 (% of baseline) (Geo Mean),washed platelets; peptide 2.5 μM,41 % of baseline
same,Residual Binding of Y1 (% of baseline) (Geo Mean),washed platelets; peptide 200 μM,5 % of baseline
same,Inhibition of Y1 binding to glycocalicin by peptide,[1],did inhibit the binding
same,Residual Binding of Y1 (% of baseline),[2]; peptide 0.5 μM,89 % of baseline
same,Residual Binding of Y1 (% of baseline),[2]; peptide 2.5 μM,62 % of baseline
same,Residual Binding of Y1 (% of baseline),[2]; peptide 25 μM,25 % of baseline
same,Residual Binding of Y1 (% of baseline),[2]; peptide 200 μM,0 % of baseline
"GDEGDTDLY*DY*Y*P (GDEGDTDLYDYYP; not fully specified (residues 9, 11, 12); printed as GDEGDTDLY*DY*Y*P) [P-3-S, residues 268-280 of GPIbα]",Residual Binding of Y1 (% of baseline) (Geo Mean),washed platelets; peptide 2.5 μM,82 % of baseline
same,Residual Binding of Y1 (% of baseline) (Geo Mean),washed platelets; peptide 200 μM,26 % of baseline
same,Residual Binding of Y1 (% of baseline),[2]; peptide 0.5 μM,80 % of baseline
same,Residual Binding of Y1 (% of baseline),[2]; peptide 2.5 μM,67 % of baseline
same,Residual Binding of Y1 (% of baseline),[2]; peptide 25 μM,21 % of baseline
Mylotarg: monoclonal antibody (anti CD33) conjugated chemically to calcheamicin,prevalence of cancer cells in the bone marrow,"KG-1 cells; additional experiment, day 60, CONY1 scFv 75 μg/mouse three times/week, Mylotarg 7 μg/mouse once a week",completely inhibited
same,percentage of KG-1 cells in bone marrow compared to untreated group 2,KG-1 cells; first experiment,free of KG 1 cells
"REEGRQHFFLLEGRSSYS [negative control peptide, reference compound]",Residual Binding of Y1 (% of baseline) (Geo Mean),washed platelets; peptide 2.5 μM,96 % of baseline
same,Residual Binding of Y1 (% of baseline),[2]; peptide 2.5 μM,100 % of baseline
same,Residual Binding of Y1 (% of baseline),[2]; peptide 25 μM,89 % of baseline
same,Residual Binding of Y1 (% of baseline),[2]; peptide 200 μM,85 % of baseline
"QATEYEY*LDY*DFLPETE (QATEYEY(SO3H″)LDY(SO3H″)DFLPETE) [P-YY* Y*, PSGL-1 n-terminus peptide, sulfated]",Inhibition of Y1 binding to glycocalicin by peptide,[1],best inhibitors
"QATEY*EYLDY*DFLPETE (QATEY(SO3H)EYLDY(SO3H)DFLPETE) [P-Y*Y Y*, PSGL-1 n-terminus peptide, sulfated]",Inhibition of Y1 binding to glycocalicin by peptide,[1],inhibited Y1 binding to glycocalicin
COc1cccc2c1C(=O)c1c(O)c3c(c(O)c1C2=O)C[C@@](O)(C(=O)CO)C[C@@H]3O[C@H]1C[C@H](N)[C@H](O)[C@H](C)O1 [Doxorubicin],reduction in the number of tumor cells in the bone marrow,"KG-1 cells; additional experiment, day 60",50%
same,mice that died within three weeks after treatment initiation,"KG-1 cells; first experiment, group 7, 5 mg/kg, 1 time per week",Nine out of 10
same,percentage of KG-1 cells in bone marrow compared to untreated group 2,KG-1 cells; first experiment,statistically significant (p<0.05) lower percentage
"GDEGDTDLYDYYPEEDTE [P-1, residues 268-285 of GPIbα, non-sulfated]",Residual Binding of Y1 (% of baseline) (Geo Mean),washed platelets; peptide 200 μM,87 % of baseline
same,Residual Binding of Y1 (% of baseline),[2]; peptide 0.5 μM,88 % of baseline
same,Residual Binding of Y1 (% of baseline),[2]; peptide 2.5 μM,94 % of baseline
same,Residual Binding of Y1 (% of baseline),[2]; peptide 25 μM,71 % of baseline
same,Residual Binding of Y1 (% of baseline),[2]; peptide 200 μM,61 % of baseline
"TDLY*DY*Y*PEEDTE (TDLYDYYPEEDTE; not fully specified (residues 4, 6, 7); printed as TDLY*DY*Y*PEEDTE) [P-2-S, residues 273-285 of GPIbα]",Residual Binding of Y1 (% of baseline) (Geo Mean),washed platelets; peptide 2.5 μM,61 % of baseline
same,Residual Binding of Y1 (% of baseline) (Geo Mean),washed platelets; peptide 200 μM,7 % of baseline
same,Residual Binding of Y1 (% of baseline),[2]; peptide 0.5 μM,78 % of baseline
same,Residual Binding of Y1 (% of baseline),[2]; peptide 2.5 μM,52 % of baseline
same,Residual Binding of Y1 (% of baseline),[2]; peptide 25 μM,15 % of baseline
"QATEY*EY*LDYDFLPETE (QATEY(SO3H)EY(SO3H)LDYDFLPETE) [P-Y* Y*Y, PSGL-1 n-terminus peptide, sulfated]",Inhibition of Y1 binding to glycocalicin by peptide,[1],inhibited Y1 binding to glycocalicin
"QATEYEY*LDYDFLPETE (QATEYEY(SO3H)LDYDFLPETE) [P-YY*Y, PSGL-1 n-terminus peptide, sulfated]",Inhibition of Y1 binding to glycocalicin by peptide,[1],inhibited Y1 binding to glycocalicin
